Here are results for 81 compounds from PubChem BioAssay AID652101 (NMMLSC, 2013).

Calls of active or inactive are those of the source.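 Rule for the calls: active = at least 15% inhibition at the top concentration together with an EC50 under 10 microM; inactive = the rest.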

The first experiment deals with TALL-104 lytic granule exocytosis, LAMP-1 flow cytometry. The experiment is described as follows: potency against LAMP-1 externalization in TALL-104 – TALL-104 cells, flow cytometry, CherryPick01, dose response (AID 652101).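 For inhibition: 0% = stimulated DMSO control and 100% = unstimulated control wells.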 The settings on record: stimulated with 1 µM thapsigargin, 50 nM PMA. Background: In flow cytometry, cells or beads pass a laser one at a time.
The term EC50 denotes the midpoint of the concentration-response curve. Regarding `CCOc1ccc2nc(C)cc(Nc3cccc([N+](=O)[O-])c3)c2c1`, the EC50 is 6.14 µM.

As to `COC(=O)c1c(NC(=O)c2nc3ccccc3s2)sc2c1CC(C)(C)NC2(C)C`, the EC50 was 6.27 µM.

With `COc1ccccc1CNc1nc(NCc2ccc(C(C)C)cc2)c2sccc2n1`, the EC50 was 5.34 µM.

`Fc1ccc(/C=C\c2nccc3c2[nH]c2ccccc23)cc1`: the EC50 was 1.66 µM.

Regarding `O=S(=O)(c1ccccc1)c1nnn2c1nc(NC1CCN(Cc3ccccc3)CC1)c1cc(Cl)ccc12`, the EC50 was 4.22 µM.

Regarding `O=C(Cn1sc2ccccc2c1=O)Nc1ccc(F)cc1`, the EC50 is 5.2 µM.

With `c1ccc(CNc2nc(NCC3CC3)nc3cc(-c4ccccc4)sc23)cc1`, the EC50 is 2.22 µM.

As for `O=c1c2ccccc2sn1-c1ccccc1F`, the EC50 was 4.78 µM.

Consider `CCCCC[C@@H](C)N1C[C@@H](COCc2ccccc2)Oc2cc(N3CC[C@H](N(C)C)C3)ccc2S1(=O)=O`, for which the EC50 was 9.73 µM.

As to `COc1cccc(NC(=O)Nc2nc(-c3ccc(OC)c(OC)c3)cs2)c1`, the EC50 was 4.83 µM.

Take `CN1Cc2c(N3CCOCC3)nc3sc(C(=O)c4ccc(Br)cc4)c(N)c3c2CC1(C)C`: the EC50 is 3.23 µM.

As for `O=C(Cn1sc2ccccc2c1=O)NC12CC3CC(CC(C3)C1)C2`, the EC50 is 5.13 µM.

On to `Cc1ccc(Nc2nc(NCc3ccco3)c3ccccc3n2)cc1`, for which the EC50 was 4.7 µM.

Take `COc1ccccc1CNc1nc(NCc2ccc3occc3c2)c2sccc2n1`: the EC50 is 4.23 µM.

As to `CCN(CC)CCCNc1ccc(-c2nnc(-c3ccc(OCC(C)C)cc3)o2)cn1`, the EC50 is 2.35 µM.

`COc1cccc(N2CCN(c3ncnc4c3[nH]c3ccc(F)cc34)CC2C)c1` (stereo unspecified): the EC50 was 1.33 µM.

As for `Cc1cc(C)c2nc(C)cc(N/N=C/c3ccc(O)cc3)c2c1`, the EC50 was 4.47 µM.

As for `CN1CCN(Cc2nc3ccccc3c(=O)n2Cc2nc(-c3ccc([N+](=O)[O-])cc3)cs2)CC1`, the EC50 was 6.16 µM.

For `O=c1c2ccccc2sn1-c1ccccc1`, the EC50 was 2.36 µM.

In the case of `O=C1C=CC(=O)N1N(c1ccccc1)c1ccccc1`, the EC50 is 5.02 µM.

Regarding `O=C(OCc1ccccc1)N(CCCCN(CCCNCc1ccccc1)C(=O)OCc1ccccc1)CCCNCc1ccccc1`, the EC50 is 1.24 µM.

Regarding `COc1cccc(-c2cnc3c(NC(C)=O)cc(-c4ccccc4OC)cn23)c1`, the EC50 is 5.23 µM.

For `COc1ccc(-n2sc3ccccc3c2=O)cc1`, the EC50 is 9 µM.

For the compound `CCCS(=O)(=O)Nc1ccc(Nc2c3ccccc3nc3ccccc23)c(OC)c1`, the EC50 was 3.38 µM.

For `CCOc1ccc2[nH]c3c(N4CCc5ccccc5C4)ncnc3c2c1`, the EC50 was 4.91 µM.

Regarding `CCCCCCSc1cccc(-c2nc3ccccn3c2NCc2ccccc2)c1`, the EC50 was 7.71 µM.

As to `O=C(Nc1ccc(F)cc1)c1nc(S(=O)(=O)Cc2ccccc2)ncc1Cl`, the EC50 is 0.344 µM.

Regarding `Cc1cc(N2CCN(c3nc(-c4ccc([N+](=O)[O-])cc4)cs3)CC2)c2ccccc2n1`, the EC50 was 1.62 µM.

With `CC1COCC(C)N1C1=C(Cl)C(=O)c2ccccc2C1=O` (stereo unspecified), the EC50 is 1.61 µM.

Turning to `O=S(=O)(Nc1cc(Sc2ncn[nH]2)c(O)c2ccccc12)c1ccccc1`, the EC50 was 2.91 µM.

Turning to `Cc1ccc(-n2nnc3c(=O)oc4ccccc4c32)cc1`, the EC50 was 2.46 µM.

Regarding `CC1=C(C)CS(=O)N(S(=O)(=O)c2ccc(Cl)cc2)C1` (stereo unspecified), the EC50 was 2.88 µM.

For `COc1ccc(N2C(=O)CC(Sc3nnc(-c4ccccc4)o3)C2=O)cc1` (stereo unspecified), the EC50 was 0.897 µM.

With `O=C(CN1C(=O)/C(=C\c2cccc(Br)c2)Oc2ccccc21)NCCCN1CCOCC1`, the EC50 was 4.61 µM.

With `CCCCC[C@@H](C)N1C[C@@H](COCc2ccccc2)Oc2cc(N3CC[C@@H](N(C)C)C3)ccc2S1(=O)=O`, the EC50 is 4.57 µM.

As for `Cc1ccc(S(=O)(=O)n2ccc3c(OCCOCCNCc4ccc(F)cc4)cccc32)cc1`, the EC50 was 4.41 µM.

For the compound `CCc1ccc(/C=C2/Sc3ccccc3N(CC(=O)NCCCN3CCOCC3)C2=O)cc1`, the EC50 was 5.17 µM.

In the case of `N#Cc1c(Nc2ccccc2Cl)s[nH]c1=O`, the EC50 was 3.82 µM.

As to `O=C1CC(Sc2nnnn2-c2ccccc2)C(=O)N1c1cccc(Cl)c1` (stereo unspecified), the EC50 is 0.289 µM.

Turning to `CCCCn1c(=N)n(CC(=O)c2ccc(Br)s2)c2ccccc21`, the EC50 was 3.99 µM.

Turning to `CC1=NOC(=O)/C1=C/c1ccc(-c2ccc(Cl)cc2)o1`, the EC50 is 1.68 µM.

Regarding `COc1cccc(-c2cnc3c(NC(C)=O)cc(-c4ccsc4)cn23)c1`, the EC50 was 4.98 µM.

In the case of `CCOC(=O)c1c(NC(=O)COc2ccccc2OCC)sc2c1CC(C)(C)NC2(C)C`, the EC50 was 1.2 µM.

For `O=C1Nc2ccc(Br)cc2/C1=C/C(=O)c1ccccc1`, the EC50 was 3.13 µM.

For `CCOC(=O)c1cc(-c2csc(Nc3c(C)cc(C)cc3C)n2)on1`, the EC50 was 3.44 µM.

Test system in a further experiment: not listed separately
Described as above. The following applies: TALL-104 lytic granule exocytosis, LAMP-1 flow cytometry; at 15.1 µM (top of the series).
What is called inhibition is the change of the read-out against control, counted positive when it falls. Regarding `Cc1cccc(C)c1-n1nnnc1C(CCc1ccccc1)N1CCC(n2c(=O)[nH]c3ccccc32)CC1` (stereo unspecified), the inhibition was 94.8% (inactive).

With `CCOc1cccc(CNCCc2c(C)[nH]c3ccc(OC(F)(F)F)cc23)c1O`, the inhibition is 82.3% (inactive).

On to `CC(C)CNC(=O)c1c(N)n(Cc2ccc3c(c2)OCO3)c2nc3ccccc3nc12`, for which the inhibition was 69.2% (inactive).

The same experiment, now with this note: TALL-104 lytic granule exocytosis, LAMP-1 flow cytometry; at 15.1 µM (top of the series); stimulated with 1 µM thapsigargin, 50 nM PMA.
As to `O=C(COC(=O)[C@H](Cc1c[nH]c2ccccc12)NC(=O)c1ccc(Cl)cc1)Nc1ccc2c(c1)OCO2`, the inhibition was 108% (inactive).

On to `COc1ccc(-c2cc(NC(C)=O)c3ncc(-c4ccccc4)n3c2)c(OC)c1`, for which the inhibition was 106% (inactive).

`Cc1cc(C)c2sc(N(CCCN(C)C)C(=O)c3ccc(S(=O)(=O)N4CCc5ccccc5C4)cc3)nc2c1`: the inhibition is -21.4% (inactive).

Consider `Cn1sc(=O)c2cc(S(=O)(=O)NC3CC3)ccc21`, for which the inhibition is 103% (inactive).

Regarding `COC(=O)c1ccc(NCc2c(O)ccc(O)c2Br)cc1Cl`, the inhibition is 72.6% (inactive).

Regarding `CN1CCN(CCCNC(=O)c2ccc(/C=C3\Sc4ccccc4N(Cc4ccc(F)cc4)C3=O)cc2)CC1`, the inhibition was 89.7% (inactive).

As to `CCC(C)Nc1nc(-c2cccc(OC)c2O)nc2ccccc12` (stereo unspecified), the inhibition was 101% (inactive).

In the case of `CCCCCc1c(-c2cccc(F)c2)ncn1CCc1ccccc1OC`, the inhibition was 102% (inactive).

Regarding `COc1ccc(-c2cc(NC=O)c3ncc(-c4cccc(OC)c4)n3c2)cc1`, the inhibition was 101% (inactive).

As to `CCc1nc2ccc(C(=O)NC3CCN(Cc4ccccc4)CC3)cn2c1N(C)Cc1cc2ccccc2s1`, the inhibition was 101% (inactive).

With `COc1ccc2nc3cc(Cl)ccc3c(Nc3ccc(O)c(CN4CCN(C)CC4)c3)c2c1`, the inhibition was 66.6% (inactive).

For the compound `CCOc1cc(CNCCc2ccc(S(N)(=O)=O)cc2)ccc1OCc1ccc(Cl)cc1`, the inhibition is 48.5% (inactive).

Regarding `CCOC(=O)c1cnc2ccc(OCC)cc2c1N(C)Cc1ccccc1`, the inhibition is 69.7% (inactive).

For the compound `CCCNC(=O)Cn1sc2nc(C)cc(C)c2c1=O`, the inhibition is 97.3% (inactive).

As to `CN(C)CCCN(C(=O)CCSc1ccccc1)c1nc2cc3c(cc2s1)OCO3`, the inhibition is 90.1% (inactive).

Turning to `CN(C)CCCNC(=S)NCC(c1ccc(Cl)cc1Cl)c1c[nH]c2ccccc12` (stereo unspecified), the inhibition was 92.7% (inactive).

Turning to `COC(=O)c1ccc(N2CCN(C)CC2)c(NC(=O)c2sc3ccccc3c2Cl)c1`, the inhibition is 70.3% (inactive).

With `COc1ccc(N2C(=O)CC(Sc3n[nH]c(-c4ccccc4)n3)C2=O)cc1` (stereo unspecified), the inhibition was 95.2% (inactive).

Regarding `CCN(CC)CCOC(=O)c1ccc(N/C=C(/C#N)c2nc(-c3ccc(OC)cc3)cs2)cc1`, the inhibition is 56.9% (inactive).

Consider `CCOc1ccc(C(=O)CCN2CCCCCC2)cc1`, for which the inhibition is 91.4% (inactive).

Turning to `O=C(Nc1ccc2nc(-c3cccs3)c(-c3cccs3)nc2c1)N1CCOCC1`, the inhibition is -2.59% (inactive).

For `COc1cccc2c1C(=O)c1ccc3ccccc3c1C2=O`, the inhibition is 18.2% (inactive).

For the compound `O=c1c(Cl)c2oc3ccccc3nc-2c2ccccc12`, the inhibition is -0.07% (inactive).

Turning to `CCC(=C(c1ccc(OC)cc1)c1ccc(OC)cc1)c1cn(CC(O)CN2CCN(C)CC2)c2ccccc12` (stereo unspecified), the inhibition was 87.4% (inactive).

Consider `O=[N+]([O-])c1cccc(-c2cc(-c3cc(Br)ccc3O)[nH]n2)c1`, for which the inhibition was 67.8% (inactive).

Regarding `C=C(C)COc1ccc(-c2n[nH]c(C)c2-c2ccc(OC)cc2)c(O)c1`, the inhibition was 106% (inactive).

Regarding `O=c1c2ccccc2sn1-c1ccc(Cl)cc1`, the inhibition is 103% (inactive).

Consider `CN(C)CCNC(=O)c1ccc(-c2cn3c(-c4ccc(Oc5ccccc5)cc4)cnc3cn2)cc1`, for which the inhibition was 81.6% (inactive).

Regarding `CCOC(=O)c1c(NC(=O)CSc2nnnn2-c2ccccc2OCC)sc2c1CC(C)(C)NC2(C)C`, the inhibition is 84.6% (inactive).

As for `Cc1ccc2nc(-c3ccc(N4C(=O)CC(N5CCN(CCO)CC5)C4=O)cc3)sc2c1` (stereo unspecified), the inhibition was 83.1% (inactive).

For the compound `CCCCN(CCCC)c1nc(-c2ccncc2)nc2ccccc12`, the inhibition is 85.6% (inactive).

With `COc1cccc(-c2cnc3c(NC=O)cc(-c4ccccc4)cn23)c1`, the inhibition was 101% (inactive).

In the case of `CC(Nc1nc(N2CCNCC2)nc2ccccc12)c1ccccc1` (stereo unspecified), the inhibition is 104% (inactive).
